Laboratory results reported in patent US20060069132A1, “Azolecarboxamide herbicides” (priority 2004, published 2006).

Assays:
Assay in all cases: Test E pre-/postemergence herbicide test
[1] = tested on: common ragweed; assay type: in vivo, Ambrosia elatior
Method in brief: (§1)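 Each species was compared with untreated controls 12 to 14 days after greenhouse application and assigned a visual score from 0 (no effect) to 100 (complete control). Applications were preemergence to seeded soil or postemergence to 1- to 4-leaf plants, using a solvent-plus-surfactant formulation.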

[2] = tested on: common sowthistle; assay type: in vivo, Sonchus oleraceous
Method in brief: as §1

[3] = tested on: quackgrass; assay type: in vivo, Elytrigia repens
Method in brief: as §1

[4] = tested on: green foxtail; assay type: in vivo, Setaria viridis
Method in brief: as §1

[5] = tested on: common purslane; assay type: in vivo, Portulaca oleracea
Method in brief: as §1

[6] = tested on: bermudagrass; assay type: in vivo, Cynodon dactylon
Method in brief: as §1

[7] = tested on: prickly sida; assay type: in vivo, Sida spinosa
Method in brief: as §1

[8] = tested on: field bindweed; assay type: in vivo, Convolvulus arvensis
Method in brief: as §1

[9] = tested on: barnyardgrass; assay type: in vivo, Echinochloa crus-galli
Method in brief: as §1

[10] = tested on: mustard; assay type: in vivo, Brassica nigra
Method in brief: as §1

[11] = tested on: common chickweed; assay type: in vivo, Stellaria media
Method in brief: as §1

[12] = Postemergence, 250 g ai/ha, scale 0 to 100
[13] = Preemergence, 62 g ai/ha, scale 0 to 100
[14] = Preemergence, 125 g ai/ha, scale 0 to 100
[15] = Preemergence, 250 g ai/ha, scale 0 (no effect) to 100 (complete control)
[16] = Preemergence, 500 g ai/ha, scale 0 (no effect) to 100 (complete control)
[17] = postemergence, 125 g ai/ha, scale 0 to 100
[18] = postemergence, 62 g ai/ha, scale 0 to 100
[19] = Postemergence, 500 g ai/ha, scale 0 to 100

In the case of `CCc1nn(C(C)(C)C)cc1C(=O)Nc1cc(C(=O)N(C)C)ccc1F` [Compound 222, N-[5-[(dimethylamino)carbonyl]-2-fluorophenyl]-1-(1,1-dimethylethyl)-3-ethyl-1H-pyrazole-4-carboxamide], the “Plant response rating, Ragweed” value [1, 12] is reported as 70, the “Plant response rating, Ragweed” value [1, 13] is reported as 30 and the “Plant response rating, Ragweed” value [1, 14] is reported as 85. The “Plant response rating, Ragweed” value [1, 15] was 95, the “Plant response rating, Ragweed” value [1, 16] was 95 and the “Plant response rating, Ragweed” value [1, 17] was 60. The “Plant response rating, Ragweed” value [1, 18] was 20, the “Plant response rating, Sowthistle” value [2, 19] was 100 and the “Plant response rating, Sowthistle” value [2, 12] was 100. The “Plant response rating, Sowthistle” value [2, 13] was 75, the “Plant response rating, Sowthistle” value [2, 14] was 90 and the “Plant response rating, Sowthistle” value [2, 15] was 90. For the same compound, the “Plant response rating, Sowthistle” value [2, 16] was 95, the “Plant response rating, Sowthistle” value [2, 17] was 60 and the “Plant response rating, Sowthistle” value [2, 18] was 20. For the same compound, the “Plant response rating, Quackgrass” value [3, 19] was 85, the “Plant response rating, Quackgrass” value [3, 12] was 80 and the “Plant response rating, Quackgrass” value [3, 13] was 10. For the same compound, the “Plant response rating, Quackgrass” value [3, 14] was 80, the “Plant response rating, Quackgrass” value [3, 15] was 100 and the “Plant response rating, Quackgrass” value [3, 16] was 100. For the same compound, the “Plant response rating, Quackgrass” value [3, 17] was 75, the “Plant response rating, Quackgrass” value [3, 18] was 30 and the “Plant response rating, Foxtail, Green” value [4, 12] was 80. For the same compound, the “Plant response rating, Foxtail, Green” value [4, 13] was 10, the “Plant response rating, Foxtail, Green” value [4, 14] was 50 and the “Plant response rating, Foxtail, Green” value [4, 15] was 100. The “Plant response rating, Foxtail, Green” value [4, 16] was 100, the “Plant response rating, Foxtail, Green” value [4, 17] was 40 and the “Plant response rating, Foxtail, Green” value [4, 18] was 10. The “Plant response rating, Purslane” value [5, 12] was 60, the “Plant response rating, Purslane” value [5, 13] was 70 and the “Plant response rating, Purslane” value [5, 14] was 100. The “Plant response rating, Purslane” value [5, 15] was 100, the “Plant response rating, Purslane” value [5, 16] was 100 and the “Plant response rating, Purslane” value [5, 17] was 30. The “Plant response rating, Purslane” value [5, 18] was 10, the “Plant response rating, Bermudagrass” value [6, 19] was 80 and the “Plant response rating, Bermudagrass” value [6, 12] was 80. The “Plant response rating, Bermudagrass” value [6, 13] was 80, the “Plant response rating, Bermudagrass” value [6, 14] was 100 and the “Plant response rating, Bermudagrass” value [6, 15] was 100. For the same compound, the “Plant response rating, Bermudagrass” value [6, 16] was 100, the “Plant response rating, Bermudagrass” value [6, 17] was 80 and the “Plant response rating, Bermudagrass” value [6, 18] was 60. For the same compound, the “Plant response rating, Prickly Sida” value [7, 19] was 100, the “Plant response rating, Prickly Sida” value [7, 12] was 100 and the “Plant response rating, Prickly Sida” value [7, 13] was 20. The “Plant response rating, Prickly Sida” value [7, 14] was 70, the “Plant response rating, Prickly Sida” value [7, 15] was 100 and the “Plant response rating, Prickly Sida” value [7, 16] was 100. The “Plant response rating, Prickly Sida” value [7, 17] was 100, the “Plant response rating, Prickly Sida” value [7, 18] was 90 and the “Plant response rating, Bindweed, Field” value [8, 12] was 95. For the same compound, the “Plant response rating, Bindweed, Field” value [8, 14] was 40, the “Plant response rating, Bindweed, Field” value [8, 15] was 95 and the “Plant response rating, Bindweed, Field” value [8, 16] was 95. The “Plant response rating, Bindweed, Field” value [8, 17] was 75, the “Plant response rating, Bindweed, Field” value [8, 18] was 60 and the “Plant response rating, Barnyardgrass” value [9, 12] was 70. The “Plant response rating, Barnyardgrass” value [9, 13] was 50, the “Plant response rating, Barnyardgrass” value [9, 14] was 90 and the “Plant response rating, Barnyardgrass” value [9, 15] was 100. The “Plant response rating, Barnyardgrass” value [9, 16] was 100, the “Plant response rating, Barnyardgrass” value [9, 17] was 50 and the “Plant response rating, Barnyardgrass” value [9, 18] was 50. For the same compound, the “Plant response rating, Black Mustard” value [10, 19] was 95, the “Plant response rating, Black Mustard” value [10, 12] was 95 and the “Plant response rating, Black Mustard” value [10, 13] was 90. For the same compound, the “Plant response rating, Black Mustard” value [10, 14] was 100, the “Plant response rating, Black Mustard” value [10, 15] was 100 and the “Plant response rating, Black Mustard” value [10, 16] was 100. For the same compound, the “Plant response rating, Black Mustard” value [10, 17] was 90, the “Plant response rating, Black Mustard” value [10, 18] was 90 and the “Plant response rating, Chickweed” value [11, 19] was 100. The “Plant response rating, Chickweed” value [11, 12] was 100, the “Plant response rating, Chickweed” value [11, 13] was 80 and the “Plant response rating, Chickweed” value [11, 14] was 100. For the same compound, the “Plant response rating, Chickweed” value [11, 15] was 100, the “Plant response rating, Chickweed” value [11, 16] was 100 and the “Plant response rating, Chickweed” value [11, 17] was 100. The “Plant response rating, Chickweed” value [11, 18] was 80.
In the case of `CCc1nn(C(C)C)nc1C(=O)Nc1cccc(C(=O)N(C)CC)c1` [Compound 386], the “Plant response rating, Ragweed” value [1, 14] is reported as 20, the “Plant response rating, Ragweed” value [1, 15] is reported as 60 and the “Plant response rating, Sowthistle” value [2, 14] is reported as 60. The “Plant response rating, Sowthistle” value [2, 15] was 100, the “Plant response rating, Quackgrass” value [3, 14] was 80 and the “Plant response rating, Quackgrass” value [3, 15] was 90. The “Plant response rating, Foxtail, Green” value [4, 14] was 60, the “Plant response rating, Foxtail, Green” value [4, 15] was 95 and the “Plant response rating, Purslane” value [5, 14] was 100. For the same compound, the “Plant response rating, Purslane” value [5, 15] was 100, the “Plant response rating, Bermudagrass” value [6, 14] was 80 and the “Plant response rating, Bermudagrass” value [6, 15] was 95. For the same compound, the “Plant response rating, Prickly Sida” value [7, 14] was 100, the “Plant response rating, Prickly Sida” value [7, 15] was 100 and the “Plant response rating, Bindweed, Field” value [8, 14] was 20. The “Plant response rating, Bindweed, Field” value [8, 15] was 60, the “Plant response rating, Barnyardgrass” value [9, 14] was 80 and the “Plant response rating, Barnyardgrass” value [9, 15] was 100. For the same compound, the “Plant response rating, Black Mustard” value [10, 15] was 70, the “Plant response rating, Chickweed” value [11, 14] was 95 and the “Plant response rating, Chickweed” value [11, 15] was 95.
